Measurements taken from patent US20080299076A1, “Compunds and compositions that cause non-apoptotic cell death and uses thereof” (priority 2006, published 2008).
Values after ≈ are worked out from the molar mass of the structure shown.

Key:
[1] = Stability in mouse plasma; assay type: in vitro ADME; conditions: after five hours
Description: (§1) The stability of erastin in mouse and human liver microsomes and in mouse and human plasma was assessed. In both human and mouse liver microsomes, after 1 hr, ˜30% of erastin was converted to its primary metabolite (the O-de-ethylated product). In both human and mouse plasma, only ˜10% of erastin was lost after five hours. Thus, erastin has sufficient metabolic and plasma stability to be tested in vivo in mice.

[2] = test system: BJ-TERT/LT/ST/RAS^V12 cells; assay: Oxidative species detection (H2DCF-DA, flow cytometry); assay type: cell-based, human; conditions: 4.6 μM erastin
Description: BJ-TERT/LT/ST/RAS^V12 cells (shown in histogram plots and in line graph, dark line) and BJ-TERT cells (shown in line graph only, light line) were treated with 4.6-μM erastin and the level of intracellular oxidative species determined using 2′7′-dichlorodihydrofluorescein diacetate (H2DCF-DA, Molecular Probes) and flow cytometry. Cells were seeded at 3×10^5 cells per dish in 60-mm dishes and allowed to grow overnight. Cells were incubated with 10 μM of H2DCF-DA for 10 minutes, harvested by trypsinization, washed twice with cold PBS, re-suspended in 100 μl of PBS and incubated with 5 μl of 50-μg/ml propidium iodide for 10 minutes. 400 μl of PBS was added and the solution analyzed by flow cytometry (FACSCalibur-Becton-Dickinson).
2′7′-dichlorodihydrofluorescein diacetate (H2DCF-DA, Molecular Probes) was used to measure oxidative species by flow cytometry. Non-fluorescent H2DCF-DA is cleaved by endogenous esterases and then is oxidized to generate fluorescent dichlorofluorescein (DCF). BJ-TERT/LT/ST/RAS^V12 and BJ-TERT cells were seeded at 3×10^5 cells per dish in 60-mm dishes and allowed to grow overnight. Cells were treated with 4.6 μM erastin for 2, 4, 6, 8, 10 and 12 h. […] 400 μl of PBS was added and the solution analyzed by flow cytometry (FACSCalibur-Becton-Dickinson). FL1-H indicates DCF fluorescence units detected.

[3] = Stability in human plasma; assay type: in vitro ADME; conditions: after five hours
Description: as §1

[4] = Stability in mouse liver microsomes; assay type: in vitro ADME; conditions: after 1 hr
Description: as §1

[5] = test system: BJ-TERT/LT/ST/RAS^V12 cells; assay: Annexin V staining; assay type: cell-based, human; conditions: erastin 9 μM
Description: The percentage of cells in the indicated Ml region were 6%, 6%, and 38% in untreated, erastin-treated (9 μM), and camptothecin-treated (1 μM), respectively.

[6] = test system: BJ-TERT/LT/ST/RAS^V12 cells; assay: Cell death, viable cells counted using a hemacytometer; assay type: cell-based, human; conditions: 13 μM erastin A1, 23 μM antimycin, 126 μM 2-methoxyestradiol or the combinations
[7] = test system: Calu-1 cells; assay: Sensitivity of Calu-1 lung carcinoma cells to erastin; assay type: cell-based; conditions: Homo sapiens; Calu-1 lung carcinoma cells with activating KRAS mutation
Description: Erastin was discovered, e.g., in a screen for oncogenic-HRAS-selective lethal compounds. KRAS is more frequently mutated in human cancers than HRAS. Thus, whether erastin is selectively lethal to tumor cells harboring oncogenic KRAS was tested. Calu-1 is a lung carcinoma cell line (Calu-1) with an activating mutation in KRAS. In certain embodiments, Calu-1 cells were sensitive to erastin (IC50=5 μM). Two different lentiviral constructs were used to reduce expression of mutant KRAS.
(Left panel) Calu-1 cells that had been infected with lentiviruses expressing shRNAs targeting GFP (as a control) or KRAS (targeting 19 nucleotides starting at nucleotide 269 or 509) were seeded in 6-well plates, treated with erastin and viability measured using Trypan Blue exclusion on a Beckman Vi-Cell. Error bars represent one SD. (Right panel) Western blot showing KRAS knockdown in Calu-1 cells. Top band=actin, Bottom band=KRAS. Calu-1 cells were infected with nothing (left lane), or lentiviruses containing shRNA constructs targeting GFP or KRAS. For KRAS, the shRNA was designed to match 19 nucleotides starting at the indicated nt.

[8] = test system: MIA PaCa-2 cells; assay: Alamar Blue viability assay; assay type: cell-based; conditions: Homo sapiens; MIA PaCa-2 (+KRAS)
Description: (§2) Alamar Blue metabolism: 10% Alamar Blue was added to assay plates, which were then incubated for an additional 16 hours. Red fluorescence, resulting from reduction of Alamar Blue, was detected on a Victor3 platereader (ex: 530, em: 590).
(§3) Table 2. Activity of RAS-selective lethal compound erastin in tumor cell lines. IC50 values (ng/mL) are shown using the Alamar Blue viability assay. BJ engineered tumor cells express TERT, LT, ST, and oncogenic RAS. Isogenic RAS^V12 lacking cells are identical but lack HRAS^V12. BJ-DRD cells are derived from BJ cells and contain TERT, oncogenic RAS, a truncated from of p53 (p53DD) that disrupts the tetramerization of endogenous p53, a CDK4(R24C) mutant resistant to inhibition by p16INK4A and p151NK4B (the major negative regulators of CDK4) and cyclin D1. These latter protein substitute for LT. HCT-116, A549, Calu-1, and MIA PaCa-2 are tumor cells derived from cancers (colon, lung, lung and pancreatic, respectively) known to have activating mutations in RAS.

[9] = test system: A549 cells; assay: Alamar Blue viability assay; assay type: cell-based; conditions: Homo sapiens; A549 (+KRAS)
Description: as §2, §3

[10] = test system: HCT-116 cells; assay: Alamar Blue viability assay; assay type: cell-based; conditions: Homo sapiens; HCT-116 (+KRAS)
Description: as §2, §3

[11] = test system: BJ-TERT/LT/ST cells; assay: Alamar Blue viability assay; assay type: cell-based; conditions: Homo sapiens; BJ-TERT/LT/ST (lacking HRAS^V12)
Description: as §2, §3

[12] = test system: Calu-1 cells; assay: Alamar Blue viability assay; assay type: cell-based; conditions: Homo sapiens; Calu-1 (+KRAS)
Description: as §2, §3

Structure (SMILES): CCOc1ccccc1-n1c(C(C)N2CCN(C(=O)COc3ccc(Cl)cc3)CC2)nc2ccccc2c1=O (stereo not drawn) [erastin, 2-(1-{4-[2-(4-Chloro-phenoxy)-acetyl]-piperazin-1-yl}-ethyl)-3-(2-ethoxy-phenyl)-3H-quinazolin-4-one]
- compound lost [1]: ~10%
- Formation of oxidative species [2]: oxidizing species were detected
- compound lost [3]: ~10%
- converted to primary metabolite (O-de-ethylated product) [4]: ~30%
- percentage of cells in M1 region (Annexin V staining) [5]: 6%
- Cell death (%) [6]: 100%
- IC50 [7]: 5 µM
- IC50 [8]: 5 µg/mL (≈ 9.14 µM)
- IC50 [9]: > 20 µg/mL
- IC50 [10]: > 20 µg/mL
- IC50 [11]: > 20 µg/mL
- IC50 [12]: 1 µg/mL (≈ 1.83 µM)
